# Experimental data: US20240391940A1, “FUSED RING-CONTAINING COMPOUND, APPLICATION THEREOF, AND COMPOSITION CONTAINING SAME” (GenEros Biopharma Ltd., priority 2020, published 2024)
# System: collagen-induced arthritis (CIA) mouse model
# Experiment: Mouse CIA model, repeated for dose exploration (10, 30, 50 mg/kg)
# Details: for Significance of clinical score vs. Vehicle group (Two-way ANOVA): CIA mice, GEN1-284s 50 mpk
# From the text: Testing was repeated for dose exploration
# The above method was used.
structure (smiles),measurement,setting,value
"O=C(Cc1ccc2ncccc2c1)N1CCC(n2c(=O)n(COP(=O)([O-])[O-])c3cccc(C(F)(F)F)c32)CC1.[Na+].[Na+] [GEN1-284 salt, (2-Oxo-3-(1-(2-(quinolin-6-yl)acetyl)piperidin-4-yl)-4-(trifluoromethyl)-2,3-dihydro-1H-benzo[d]imidazol-1-yl)methyl disodium phosphate]",Significance of clinical score vs. Vehicle group (Two-way ANOVA),Day 35,* (*P < 0.05)
same,Significance of clinical score vs. Vehicle group (Two-way ANOVA),Day 38,** (**P < 0.01)
same,Significance of clinical score vs. Vehicle group (Two-way ANOVA),Day 40,** (**P < 0.01)
same,Significance of clinical score vs. Vehicle group (Two-way ANOVA),Day 42,** (**P < 0.01)
same,"Changes in body weight, Mean ± SEM","G3 GEN1-284s 10 mg/kg, Day 21",20.64 ± 0.17
same,"Clinical scores, Mean ± SEM","G3 GEN1-284s 10 mg/kg, Day 21",0.0 ± 0.00
same,"Changes in body weight, Mean ± SEM","G3 GEN1-284s 10 mg/kg, Day 24",20.40 ± 0.28
same,"Clinical scores, Mean ± SEM","G3 GEN1-284s 10 mg/kg, Day 24",0.0 ± 0.00
same,"Changes in body weight, Mean ± SEM","G3 GEN1-284s 10 mg/kg, Day 26",20.19 ± 0.41
same,"Clinical scores, Mean ± SEM","G3 GEN1-284s 10 mg/kg, Day 26",0.3 ± 0.16
same,"Changes in body weight, Mean ± SEM","G3 GEN1-284s 10 mg/kg, Day 28",19.34 ± 0.52
same,"Clinical scores, Mean ± SEM","G3 GEN1-284s 10 mg/kg, Day 28",0.6 ± 0.18
same,"Changes in body weight, Mean ± SEM","G3 GEN1-284s 10 mg/kg, Day 31",18.89 ± 0.44
same,"Clinical scores, Mean ± SEM","G3 GEN1-284s 10 mg/kg, Day 31",2.5 ± 0.57
same,"Changes in body weight, Mean ± SEM","G3 GEN1-284s 10 mg/kg, Day 33",18.65 ± 0.48
same,"Clinical scores, Mean ± SEM","G3 GEN1-284s 10 mg/kg, Day 33",4.1 ± 0.99
same,"Changes in body weight, Mean ± SEM","G3 GEN1-284s 10 mg/kg, Day 35",19.04 ± 0.47
same,"Clinical scores, Mean ± SEM","G3 GEN1-284s 10 mg/kg, Day 35",5.6 ± 1.29
same,"Changes in body weight, Mean ± SEM","G3 GEN1-284s 10 mg/kg, Day 38",19.54 ± 0.38
same,"Clinical scores, Mean ± SEM","G3 GEN1-284s 10 mg/kg, Day 38",6.9 ± 1.55
same,"Changes in body weight, Mean ± SEM","G3 GEN1-284s 10 mg/kg, Day 40",19.85 ± 0.28
same,"Clinical scores, Mean ± SEM","G3 GEN1-284s 10 mg/kg, Day 40",7.5 ± 1.69
same,"Changes in body weight, Mean ± SEM","G3 GEN1-284s 10 mg/kg, Day 42",19.90 ± 0.31
same,"Clinical scores, Mean ± SEM","G3 GEN1-284s 10 mg/kg, Day 42",7.9 ± 1.79
same,"Clinical scores: significance vs. solvent control group, two-way ANOVA","G3 GEN1-284s 10 mg/kg, Day 42",* (* p <0.05)
same,"Changes in body weight, Mean ± SEM","G4 GEN1-284s 30 mg/kg, Day 21",20.25 ± 0.34
same,"Clinical scores, Mean ± SEM","G4 GEN1-284s 30 mg/kg, Day 21",0.0 ± 0.00
same,"Changes in body weight, Mean ± SEM","G4 GEN1-284s 30 mg/kg, Day 24",19.74 ± 0.33
same,"Clinical scores, Mean ± SEM","G4 GEN1-284s 30 mg/kg, Day 24",0.0 ± 0.00
same,"Changes in body weight, Mean ± SEM","G4 GEN1-284s 30 mg/kg, Day 26",19.79 ± 0.34
same,"Clinical scores, Mean ± SEM","G4 GEN1-284s 30 mg/kg, Day 26",0.3 ± 0.16
same,"Changes in body weight, Mean ± SEM","G4 GEN1-284s 30 mg/kg, Day 28",19.48 ± 0.54
same,"Clinical scores, Mean ± SEM","G4 GEN1-284s 30 mg/kg, Day 28",0.6 ± 0.18
same,"Changes in body weight, Mean ± SEM","G4 GEN1-284s 30 mg/kg, Day 31",19.20 ± 0.56
same,"Clinical scores, Mean ± SEM","G4 GEN1-284s 30 mg/kg, Day 31",2.1 ± 0.69
same,"Changes in body weight, Mean ± SEM","G4 GEN1-284s 30 mg/kg, Day 33",19.50 ± 0.61
same,"Clinical scores, Mean ± SEM","G4 GEN1-284s 30 mg/kg, Day 33",3.6 ± 1.13
same,"Changes in body weight, Mean ± SEM","G4 GEN1-284s 30 mg/kg, Day 35",19.68 ± 0.61
same,"Clinical scores, Mean ± SEM","G4 GEN1-284s 30 mg/kg, Day 35",5.1 ± 1.25
same,"Changes in body weight, Mean ± SEM","G4 GEN1-284s 30 mg/kg, Day 38",19.46 ± 0.56
same,"Clinical scores, Mean ± SEM","G4 GEN1-284s 30 mg/kg, Day 38",6.0 ± 1.40
same,"Clinical scores: significance vs. solvent control group, two-way ANOVA","G4 GEN1-284s 30 mg/kg, Day 38",** (** p < 0.01)
same,"Changes in body weight, Mean ± SEM","G4 GEN1-284s 30 mg/kg, Day 40",20.06 ± 0.53
same,"Clinical scores, Mean ± SEM","G4 GEN1-284s 30 mg/kg, Day 40",6.9 ± 1.53
same,"Clinical scores: significance vs. solvent control group, two-way ANOVA","G4 GEN1-284s 30 mg/kg, Day 40",* (* p <0.05)
same,"Changes in body weight, Mean ± SEM","G4 GEN1-284s 30 mg/kg, Day 42",19.78 ± 0.44
same,"Clinical scores, Mean ± SEM","G4 GEN1-284s 30 mg/kg, Day 42",8.1 ± 1.26
same,"Clinical scores: significance vs. solvent control group, two-way ANOVA","G4 GEN1-284s 30 mg/kg, Day 42",* (* p <0.05)
same,"Changes in body weight, Mean ± SEM","G5 GEN1-284s 50 mg/kg, Day 21",20.44 ± 0.30
same,"Clinical scores, Mean ± SEM","G5 GEN1-284s 50 mg/kg, Day 21",0.0 ± 0.00
same,"Changes in body weight, Mean ± SEM","G5 GEN1-284s 50 mg/kg, Day 24",19.66 ± 0.23
same,"Clinical scores, Mean ± SEM","G5 GEN1-284s 50 mg/kg, Day 24",0.0 ± 0.00
same,"Changes in body weight, Mean ± SEM","G5 GEN1-284s 50 mg/kg, Day 26",19.70 ± 0.26
same,"Clinical scores, Mean ± SEM","G5 GEN1-284s 50 mg/kg, Day 26",0.4 ± 0.18
same,"Changes in body weight, Mean ± SEM","G5 GEN1-284s 50 mg/kg, Day 28",19.60 ± 0.43
same,"Clinical scores, Mean ± SEM","G5 GEN1-284s 50 mg/kg, Day 28",0.6 ± 0.18
same,"Changes in body weight, Mean ± SEM","G5 GEN1-284s 50 mg/kg, Day 31",18.88 ± 0.52
same,"Clinical scores, Mean ± SEM","G5 GEN1-284s 50 mg/kg, Day 31",1.9 ± 0.67
same,"Changes in body weight, Mean ± SEM","G5 GEN1-284s 50 mg/kg, Day 33",18.91 ± 0.59
same,"Clinical scores, Mean ± SEM","G5 GEN1-284s 50 mg/kg, Day 33",3.4 ± 1.15
same,"Changes in body weight, Mean ± SEM","G5 GEN1-284s 50 mg/kg, Day 35",19.09 ± 0.53
same,"Clinical scores, Mean ± SEM","G5 GEN1-284s 50 mg/kg, Day 35",4.8 ± 1.36
same,"Clinical scores: significance vs. solvent control group, two-way ANOVA","G5 GEN1-284s 50 mg/kg, Day 35",* (* p <0.05)
same,"Changes in body weight, Mean ± SEM","G5 GEN1-284s 50 mg/kg, Day 38",19.10 ± 0.52
same,"Clinical scores, Mean ± SEM","G5 GEN1-284s 50 mg/kg, Day 38",5.9 ± 1.54
same,"Clinical scores: significance vs. solvent control group, two-way ANOVA","G5 GEN1-284s 50 mg/kg, Day 38",** (** p < 0.01)
same,"Changes in body weight, Mean ± SEM","G5 GEN1-284s 50 mg/kg, Day 40",19.31 ± 0.43
same,"Clinical scores, Mean ± SEM","G5 GEN1-284s 50 mg/kg, Day 40",6.6 ± 1.60
same,"Clinical scores: significance vs. solvent control group, two-way ANOVA","G5 GEN1-284s 50 mg/kg, Day 40",** (** p < 0.01)
same,"Changes in body weight, Mean ± SEM","G5 GEN1-284s 50 mg/kg, Day 42",19.39 ± 0.39
same,"Clinical scores, Mean ± SEM","G5 GEN1-284s 50 mg/kg, Day 42",6.9 ± 1.55
same,"Clinical scores: significance vs. solvent control group, two-way ANOVA","G5 GEN1-284s 50 mg/kg, Day 42",** (** p < 0.01)
